The values below come from PMC3744471, “Mitochondria Are the Target Organelle of Differentiation-Inducing Factor-3, an Anti-Tumor Agent Isolated from Dictyostelium Discoideum” (PLoS ONE, 2013).

SMILES strings stand for the structures.

Assay [1] has as its system mitochondria in HeLa cells. Briefly: Mitochondrial morphology by fluorescence microscopy. The assay is classed as cell-based, human. Conditions: BODIPY-DIF-3 20 µM 1 day, Bu-DIF-3 5 µM, CCCP 10 µM 3 days. The procedure: For high magnification multi-color imaging, cells were incubated for the appropriate times with 2 ml of DMEM-FBS (HeLa and 3T3-L1) or MEM-α-FBS (LM8) containing various compounds in 35-mm plastic dishes (tissue culture treated µ-Dish; ibidi, Martinsried, Germany). The cells were washed twice with 2 ml of PBS(–), submerged in 2 ml of Hepes buffer (pH 7.4), and observed at room temperature with a Keyence BZ-9000 fluorescence microscope (Osaka, Japan) equipped with an oil immersion 100× lens (CFI Plan Apo VC100XH) and multi-filters that can distinguish four fluorescent probes simultaneously. Original digitized images of z-stack sections were taken at 0.4- µm intervals, which were then treated (haze-reduced) with the Keyence BZ analyzer software (for deconvolution fluorescence imaging), and compiled into 3D images; when 3D images were constructed, nonlinear adjustment was performed to obtain clear (high contrast) images without haze. All color images are presented in pseudo colors.

The next assay has as its system LM8 cells. The assay is described as follows: Cell growth assay (Alamar blue), LM8. Conditions: for IC50: Mus musculus, 72 h, LM8 cells, 3 days, Alamar blue; for Effect on cell growth in LM8 cells: BODIPY-DIF-3 5–20 µM, CCCP 2–10 µM, 4 days. Format: cell-based, mouse. The procedure: (§1) HeLa, LM8, and 3T3-L1 cells were cultured for 3 days at 2.5–5×10^3 cells/well in 12-well plates with each well filled with 1 ml of DMEM-FBS (for HeLa and 3T3-L1) or MEM-α-FBS (for LM8) together with drugs at various concentrations. Then, the incubation media were discarded and the cells were washed with 1 ml of PBS(–) (20 mM phosphate buffered saline, pH 7.4) and incubated with 1 ml of fresh DMEM-FBS (HeLa and 3T3-L1) or MEM-α-FBS (LM8) containing 5% (v/v) of Alamar blue (a cell number indicator; Wako Pure Chemical Industries, Osaka, Japan) until the color changed. The relative cell number was assessed by measuring absorbance at 570 nm (reference at 595 nm) as described previously, [14]; DIF-related compounds and BODIPY-conjugated compounds hardly disturbed the cell number assessment with Alamar blue (data not shown), probably because the additive compounds were washed out when cell number was assessed. For determination of the 50% inhibitory concentration (IC50) of each drug, the cells were cultured for 3 days in the presence of each drug at various concentrations. Relative cell numbers were determined for each concentration for each drug and the IC50 was determined from the dose-response curves.
(§2) Supplementary file pone.0072118.s001.tif: Figure S1 Effects of BODIPY-DIF-3 and CCCP on cell growth, and cellular localization of BODIPY-DIF-3 in LM8 cells. (A) Cells were incubated for 4 days with 5–20 µM of BODIPY-DIF-3 (closed circles) or 2–10 µM of CCCP (closed triangles), and relative cell number was assessed by the use of Alamar blue. Data are the mean values and SD (bars) of three independent experiments. (B) Cells were incubated for 0.5 h or 3 days with 20 µM of BODIPY-DIF-3, washed free of the additive, and observed microscopically. (C) Cells were incubated for 0.5 h with BODIPY-DIF-3 (20 µM), Hoechst (0.1 µg/ml), and MitoTracker (0.1 µM), washed free of the additives, and observed by using a high-magnification fluorescence microscope. (D) Cells were incubated for 3 days with BODIPY-DIF-3 (20 µM) and then for 0.5 h with Hoechst (0.1 µg/ml) and MitoTracker (0.1 µM). Cells were washed free of the additives and observed by using a high-magnification fluorescence microscope. (TIF) Click here for additional data file.
(In general: Alamar Blue is a resazurin reagent that responds to reducing activity.)

Another assay concerns 3T3-L1 cells. The assay is described as follows: Cell growth assay (Alamar blue), 3T3-L1. The assay is classed as cell-based, mouse. Conditions: for IC50: Mus musculus, 72 h, 3T3-L1 cells, 3 days, Alamar blue; for Effect on cell growth in 3T3-L1 cells: BODIPY-DIF-3 5–20 µM, CCCP 2–10 µM, 4 days. The procedure:
as §1
as §2, with “pone.0072118.s002.tif:” for “pone.0072118.s001.tif:”, “S2” for “S1”, “3T3-L1” for “LM8”

The next assay deals with HeLa cells. Briefly: Cell growth assay (Alamar blue), HeLa. The assay is classed as cell-based, human. Conditions: 3 days; for Effect on cell growth (relative cell number): HeLa; for IC50: Homo sapiens, 72 h, HeLa cells, Alamar blue. The procedure:
HeLa, LM8, and 3T3-L1 cells were cultured for 3 days at 2.5–5×10^3 cells/well in 12-well plates with each well filled with 1 ml of DMEM-FBS (for HeLa and 3T3-L1) or MEM-α-FBS (for LM8) together with drugs at various concentrations. Then, the incubation media were discarded and the cells were washed with 1 ml of PBS(–) (20 mM phosphate buffered saline, pH 7.4) and incubated with 1 ml of fresh DMEM-FBS (HeLa and 3T3-L1) or MEM-α-FBS (LM8) containing 5% (v/v) of Alamar blue (a cell number indicator; Wako Pure Chemical Industries, Osaka, Japan) until the color changed. […] Relative cell numbers were determined for each concentration for each drug and the IC50 was determined from the dose-response curves.

The subject of assay [2] is cyclin D1 and cyclin D3 in HeLa cells. The assay is described as follows: Western blotting of cyclin D expression. The assay is classed as cell-based, human. Conditions: 20 h, DIF-3 20 µM, Bu-DIF-3 5–7.5 µM, BODIPY-DIF-3 20 µM, CCCP 10 µM, azide 0.01%. The procedure: HeLa cells were incubated for 20 h with 1 ml of DMEM-FBS containing the indicated additives in 12-well plates (2–4×10^5 cells/well), washed twice with PBS(–), harvested by adding 100–200 µl of an SDS-sample buffer solution (in proportion to cell density: relative cell number), sonicated (heated), and used for SDS-PAGE. Western blot transfer and immunoblotting were performed as described previously, by using a primary antibody for cyclin D1, cyclin D2, cyclin D3, or GAPDH, and a second antibody, an alkaline phosphatase-conjugated anti-mouse or anti-rabbit IgG antibody. […] Visualized protein bands were then digitized and quantified by using Adobe Photoshop CS4 (version 11.0) (Adobe, San Jose, CA, USA) and ImageJ Software (version 1.4) (http://rsb.info.nih.gov/ij/).
(In general: A western blot detects proteins with antibodies after separation by electrophoresis.)

For the compound `CCCCCC(=O)c1c(O)cc(OCCCC)c(Cl)c1O` [Bu-DIF-3, 1-(3-chloro-2,6-dihydroxy-4-butoxyphenyl)hexan-1-one], the Mitochondrial swelling result in assay [1] is on record as “the mitochondria in all cells swelled greatly”. Further, the IC50 in the assay with LM8 cells is 2 µM; in the assay with 3T3-L1 cells it was 4.3 µM; with HeLa cells, 3.2 µM. In addition, the “Effect on cell growth (relative cell number)” value in the assay on HeLa cells (20 µM) is given as “significantly suppressed”. Besides, the “Expression of cyclin D1” value in assay [2] was “significantly decreased”. In addition, in assay [2], the “Expression of cyclin D3” value is on record as “significantly decreased”.

With `N#CC(C#N)=NNc1cccc(Cl)c1` [CCCP, carbonyl cyanide m-chlorophenylhydrazone, reference compound], the Mitochondrial swelling result in assay [1] is “Mitochondrial swelling was induced in most HeLa cells”. Further, in the assay on LM8 cells, the “Effect on cell growth in LM8 cells” value is “dose-dependently suppressed cell growth” and inhibition was half-maximal at 6.8 µM (IC50). Besides, in the assay with 3T3-L1 cells, the “Effect on cell growth in 3T3-L1 cells” value is recorded as “dose-dependently suppressed cell growth” and the IC50 was determined as 7.5 µM. For the same compound, in the assay with HeLa cells (CCCP 10 µM, azide 0.01%), the “Effect on cell growth (relative cell number)” value is reported as “significantly suppressed”. In the assay on HeLa cells, half-maximal inhibition (IC50) required 5.2 µM. Also, in assay [2], the “Expression of cyclin D1” value is “significantly suppressed” and the “Expression of cyclin D3” value is “significantly suppressed”.

For `CCCCCC(=O)c1c(O)cc(OC)c(Cl)c1O` [DIF-3, 1-(3-chloro-2,6-dihydroxy-4-methoxyphenyl)hexan-1-one], the Mitochondrial swelling result in assay [1] is on record as “the mitochondria in all cells swelled greatly”. Also, the results for the IC50 in the assay on LM8 cells, in the assay on 3T3-L1 cells and with HeLa cells were 15.5 µM, greater than 20 µM and 14.5 µM, respectively. Moreover, the “Effect on cell growth (relative cell number)” value in the assay on HeLa cells (20 µM) is “significantly suppressed”. In assay [2], the “Expression of cyclin D1” value is recorded as “significantly decreased”. Further, in assay [2], the “Expression of cyclin D3” value is reported as “significantly decreased”.

As to `CCCCCC(=O)c1c(O)cc(OCCCCNC(=O)CCC2=[N+]3C(=Cc4c(C)cc(C)n4[B-]3(F)F)C=C2)c(Cl)c1O` [BODIPY-DIF-3], in assay [1], the Mitochondrial swelling result is “caused many mitochondria to swell in most cells within 1 day”. Also, in the assay with LM8 cells, the “Effect on cell growth in LM8 cells” value is reported as “dose-dependently suppressed cell growth” and the IC50 is 12.2 µM. Besides, in the assay on 3T3-L1 cells, the “Effect on cell growth in 3T3-L1 cells” value is recorded as “dose-dependently suppressed cell growth” and it took 20 µM to reach half-maximal inhibition (IC50). In addition, the “Effect on cell growth (relative cell number)” value with HeLa cells (5–20 µM (Bu-BODIPY up to 20 µM)) is reported as “suppressed in a dose-dependent manner”. In addition, the IC50 in the assay with HeLa cells came to 13.2 µM. In addition, in assay [2], the “Expression of cyclin D1” value is “significantly decreased” and the “Expression of cyclin D3” value is “significantly decreased”.

A word on the IC50: it is the concentration that gives 50% inhibition.
